# Reference: PubChem BioAssay AID1963970 (Molecular Pharmacology Branch, DTP, NCI, 2024)
# System: 931267-113-T-J1-PDC multicell spheroid viability
# Experiment: Anticancer human tumor 931267-113-T-J1-PDC patient-derived colon adenocarcinoma cell line growth inhibition [PI3K]
# Details: for IC50: curve of first compound; for viability, T/C: stronger effect = lower value
# Summary of the method: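 Stroma-containing spheroids: tumor line, pooled-donor HUVEC, hMSC. Treatments: targeted agents with PI3K inhibitors. Dosing: clinically relevant, half-log spacing, 10 microM ceiling without known Cmax. Read-out: cell viability.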
# [1] = second compound 0.0316 µM, first compound 0.0316 µM
# [2] = second compound 0.0316 µM, first compound 0.1 µM
# [3] = second compound 0.0316 µM, first compound 0.316 µM
# [4] = second compound 0.0316 µM, first compound 1 µM
# [5] = second compound 0.0316 µM, first compound 3.16 µM
# [6] = second compound 0.0316 µM, first compound 10 µM
# [7] = second compound 0.1 µM, first compound 0.0316 µM
# [8] = second compound 0.1 µM, first compound 0.1 µM
# [9] = second compound 0.1 µM, first compound 0.316 µM
# [10] = second compound 0.1 µM, first compound 1 µM
# [11] = second compound 0.1 µM, first compound 3.16 µM
# [12] = second compound 0.1 µM, first compound 10 µM
# [13] = second compound 0.316 µM, first compound 0.0316 µM
# [14] = second compound 0.316 µM, first compound 0.1 µM
# [15] = second compound 0.316 µM, first compound 0.316 µM
# [16] = second compound 0.316 µM, first compound 1 µM
# [17] = second compound 0.316 µM, first compound 3.16 µM
# [18] = second compound 0.316 µM, first compound 10 µM
# [19] = second compound 1 µM, first compound 0.0316 µM
# [20] = second compound 1 µM, first compound 0.1 µM
# [21] = second compound 1 µM, first compound 0.316 µM
# [22] = second compound 1 µM, first compound 1 µM
# [23] = second compound 1 µM, first compound 3.16 µM
# [24] = second compound 1 µM, first compound 10 µM
# [25] = second compound 3.16 µM, first compound 0.0316 µM
# [26] = second compound 3.16 µM, first compound 0.1 µM
# [27] = second compound 3.16 µM, first compound 0.316 µM
# [28] = second compound 3.16 µM, first compound 1 µM
# [29] = second compound 3.16 µM, first compound 3.16 µM
# [30] = second compound 3.16 µM, first compound 10 µM
# [31] = second compound 10 µM, first compound 0.0316 µM
# [32] = second compound 10 µM, first compound 0.1 µM
# [33] = second compound 10 µM, first compound 0.316 µM
# [34] = second compound 10 µM, first compound 1 µM
# [35] = second compound 10 µM, first compound 3.16 µM
# [36] = second compound 10 µM, first compound 10 µM
# 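Note: viability read 7 days after compound addition.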
smiles,measurement,setting,value
CC1(C)CCC(CN2CCN(c3ccc(C(=O)NS(=O)(=O)c4ccc(NCC5CCOCC5)c([N+](=O)[O-])c4)c(Oc4cnc5[nH]ccc5c4)c3)CC2)=C(c2ccc(Cl)cc2)C1 + Cc1nc(NC(=O)N2CCCC2C(N)=O)sc1-c1ccnc(C(C)(C)C(F)(F)F)c1,IC50,second compound 0.0316 µM,6.06 µM
same,IC50,second compound 0.1 µM,5.9 µM
same,IC50,second compound 0.316 µM,5.31 µM
same,IC50,second compound 1 µM,4.73 µM
same,IC50,second compound 3.16 µM,4.44 µM
same,IC50,second compound 10 µM,3.48 µM
same,"viability, T/C",[1],105%
same,"viability, T/C",[2],98.3%
same,"viability, T/C",[3],98%
same,"viability, T/C",[4],108%
same,"viability, T/C",[5],90.3%
same,"viability, T/C",[6],19%
same,"viability, T/C",[7],95.4%
same,"viability, T/C",[8],94%
same,"viability, T/C",[9],92%
same,"viability, T/C",[10],102%
same,"viability, T/C",[11],92.6%
same,"viability, T/C",[12],14%
same,"viability, T/C",[13],91.7%
same,"viability, T/C",[14],101%
same,"viability, T/C",[15],98.5%
same,"viability, T/C",[16],84.7%
same,"viability, T/C",[17],80.2%
same,"viability, T/C",[18],15.7%
same,"viability, T/C",[19],91.7%
same,"viability, T/C",[20],78.4%
same,"viability, T/C",[21],79.4%
same,"viability, T/C",[22],88.1%
same,"viability, T/C",[23],72.5%
same,"viability, T/C",[24],8.3%
same,"viability, T/C",[25],73.2%
same,"viability, T/C",[26],72.8%
same,"viability, T/C",[27],72.5%
same,"viability, T/C",[28],70.6%
same,"viability, T/C",[29],67.6%
same,"viability, T/C",[30],8.18%
same,"viability, T/C",[31],57.1%
same,"viability, T/C",[32],57.9%
same,"viability, T/C",[33],50.3%
same,"viability, T/C",[34],58.1%
same,"viability, T/C",[35],53.7%
same,"viability, T/C",[36],7.58%
C[C@@H](NC(=O)c1ncnc(N)c1Cl)c1ncc(C(=O)Nc2cc(C(F)(F)F)c(Cl)cn2)s1 + Cc1nc(NC(=O)N2CCCC2C(N)=O)sc1-c1ccnc(C(C)(C)C(F)(F)F)c1,IC50,second compound 0.0316 µM,> 10 µM
same,IC50,second compound 0.1 µM,> 10 µM
same,IC50,second compound 0.316 µM,> 10 µM
same,IC50,second compound 1 µM,9.87 µM
same,IC50,second compound 3.16 µM,5.35 µM
same,IC50,second compound 10 µM,1.39 µM
same,"viability, T/C",[1],110%
same,"viability, T/C",[2],106%
same,"viability, T/C",[3],110%
same,"viability, T/C",[4],116%
same,"viability, T/C",[5],97.5%
same,"viability, T/C",[6],82.8%
same,"viability, T/C",[7],103%
same,"viability, T/C",[8],107%
same,"viability, T/C",[9],113%
same,"viability, T/C",[10],111%
same,"viability, T/C",[11],88.7%
same,"viability, T/C",[12],72.5%
same,"viability, T/C",[13],106%
same,"viability, T/C",[14],96.4%
same,"viability, T/C",[15],106%
same,"viability, T/C",[16],95.7%
same,"viability, T/C",[17],74.6%
same,"viability, T/C",[18],57.5%
same,"viability, T/C",[19],93.7%
same,"viability, T/C",[20],93.2%
same,"viability, T/C",[21],99.2%
same,"viability, T/C",[22],81.1%
same,"viability, T/C",[23],71.2%
same,"viability, T/C",[24],49.5%
same,"viability, T/C",[25],83.6%
same,"viability, T/C",[26],91.8%
same,"viability, T/C",[27],83.3%
same,"viability, T/C",[28],79.8%
same,"viability, T/C",[29],62.6%
same,"viability, T/C",[30],35%
same,"viability, T/C",[31],72.2%
same,"viability, T/C",[32],63.3%
same,"viability, T/C",[33],63.8%
same,"viability, T/C",[34],52%
same,"viability, T/C",[35],41.9%
same,"viability, T/C",[36],16.9%
